The text below walks through data of a melting point compilation (Tetko et al.; mined from patent text by program, amines drawn as free bases though some values may be those of a salt).

The melting point is the temperature of the solid-liquid transition.

Compound `COc1cccc(Nc2nccc(-c3sc(N)nc3-c3ccccc3)n2)c1` came in with a melting point of 115 to 117 °C.
The value for `O=C(O)COc1cc(F)ccc1C(=O)NCc1ccc(Br)cc1F` was 143 to 145 °C.
The value for `CC1(C)CCC(=O)CC1S(=O)(=O)c1ccccc1` (centres undefined) was 84 to 86 °C; that for `Cn1ccnc1C(O)(c1ccccc1)c1ccc(Cl)cc1` (centres undefined) was 185 to 186 °C; that for `CC(C)(C)OC(=O)NCCc1ccc(OCCC2Oc3cc([N+](=O)[O-])ccc3N(Cc3cccc(Cl)c3)C2=O)cc1` (centres undefined) was 82 to 85 °C.
For the compound `N#Cc1ncccc1-c1nc2cccnc2o1`, the melting point was in the range of 129 to 133 °C.
The value for `O=c1oc2cccc(O)c2c2ccc([N+](=O)[O-])cc12` was > 260 °C; that for `CN(C)c1nc2cc(NC(=O)c3c(C(=O)O)cnn3C)ccn2n1` was > 250 °C; that for `O=[N+]([O-])c1ccccc1N1CCc2cc(Cl)ccc21` was 85 to 89 °C.
As for `CN1CCC(c2nn(-c3ccc(C(F)(F)F)cc3)c3ccc(F)cc23)CC1`, the melting point was 126 to 128 °C.
The value for `COc1cc2c(cc1OC)C1Cc3cc4c(cc3CC(=O)N1CC2)OCO4` (centres undefined) was 207 to 209 °C; that for `Cc1c(Cl)c(Cl)c(Cl)c(Cl)c1C=O` was 187 to 194 °C; that for `CCOC(=O)COc1cc(C2COc3c(C)c(C)c(NC(=O)CC(C)(C)C)c(C)c32)ccc1C(C)C` (centres undefined) was 149 to 150 °C.
In turn, `CN1C(=O)c2cnc(-c3ccccc3)nc2N(C(=O)CN2CCN(Cc3ccccc3)CC2)c2ccccc21` came in with a melting point of 194 °C.
The value for `C[C@@H](NC(=O)c1c[nH]c2ncc(-c3nn(C)c4ccsc34)nc12)C(=O)N1CC(C#N)C1` was 310 to 320 °C.
In turn, `CCCn1cc(Cc2ccc(C(=O)NS(=O)(=O)c3ccccc3C)cc2OC)c2cc(CCC(C)C(=O)N(C)C)ccc21` (centres undefined) yielded a melting point of 90 to 93 °C.
The value for `CCC(c1ccncc1)N1CCCNS1(=O)=O` (centres undefined) was 90 to 105 °C; that for `C=CCOc1nc2cccc(C(=O)OC)c2n1Cc1ccc(-c2ccccc2-c2nnn[nH]2)cc1` was 154 to 156 °C; that for `COc1ccccc1N(CCN1CCC(C(=O)c2ccc(F)cc2)CC1)S(=O)(=O)C1=CCC(=NO)C=C1` was 162 to 168 °C.
The value for `CCOC(=O)C1SCCN1C(=S)Nc1cc(Cl)cc(Cl)c1` (centres undefined) was 170 to 172 °C; that for `Brc1ccc2c(c1)CN(Cc1c[nH]c3ccccc13)C2` was 188 to 190 °C.
The value for `CCOc1cc(OCCOCc2ccccc2)cc2c1C(=O)N(COC(=O)c1c(Cl)cccc1Cl)S2(=O)=O` was 121 to 122 °C; that for `CCc1nccc(NC2COC(c3ccccc3)OC2)c1Cl` (centres undefined) was 119 to 120 °C; that for `NC(=O)c1cn(Cc2ccccc2Cl)nn1` was 155 to 158 °C.
Consider `O=[N+]([O-])c1sccc1-c1ccc(Cl)cc1`, for which the melting point is 108 to 110 °C.
The value for `OCc1ccc2c(Cl)ccnc2c1` was 138 to 139 °C; that for `Clc1ccc(-c2coc3ccc(Br)cc23)c(Cl)c1` was 116 to 117 °C; that for `Cc1ccc(-c2ccc(S(=O)(=O)Nc3onc(C)c3Br)s2)cc1` was 175 °C.
With `O=C1CC2(CCNCC2)c2cc(Br)ccc2N1`, the melting point amounted to 218 °C.
The value for `COC(=O)C1CN(C)CCC1c1ccc(Cl)c(Cl)c1` (centres undefined) was 70 to 75 °C; that for `CCOC(=O)c1ccc(SCC)c(-c2cc(C)no2)c1C` was 39 to 40 °C; that for `CCN(CC)c1ccc(C=O)c(OCc2ccccn2)c1` was 78 to 81 °C.
Compound `Cc1ccc(I(Cl)Cl)c([N+](=O)[O-])c1` came in with a melting point of 50 to 52 °C.
Compound `COC(=O)NCCOc1cc(Oc2ccc(C(F)(F)F)cc2Cl)ccc1[N+](=O)[O-]` yielded a melting point of 91 to 92 °C.
The value for `CC(C)(C)OC(=O)N1CCN(C(=O)c2cc3ccccc3[nH]2)CC1` was 213 to 214 °C.
As for `CC(=O)c1ccc(C(=O)Nc2ccc(-n3nc(C(F)(F)F)cc3C(F)(F)F)cc2)cc1`, the melting point lay in the range of 203 to 204 °C.
Regarding `CNC(=O)ON=C(C(=O)N(C)C)C(C)=NOC`, the melting point lay within 172 to 173 °C.
The value for `CCc1cc(=O)c2nc(OC(C)C)c(Cl)cc2[nH]1` was 231 to 235 °C.
The compound `COC(=O)c1c(-c2ccc(C(F)(F)F)cc2)ccc2ccccc12` yielded a melting point of 74 to 76 °C.
Compound `Cc1cc(N2CCN(CC3CC3)C2=O)sc1C(=O)NCc1cccnc1` displayed a melting point of 157 to 159 °C.
The value for `C=C(C)C(=O)OCCN(C(=O)c1ccc(C(=O)O)cc1C(=O)O)C(C)(C)C` was 74 °C; that for `C=CCc1c(O)cc(O)c(C(C)=O)c1O` was 158 to 159 °C.
In turn, `COc1cc2c(c3ccccc13)Nc1ccccc1S2` had a melting point of 168 to 170 °C.
Compound `CCCc1c(O)ccc2c(=O)cc(-c3ccc(C(=O)OCC)cc3)oc12` came in with a melting point of 225 to 226 °C.
For the compound `CCCCCCCCCCCCCCCCCCNC(=O)OCCN1CCCC1`, the melting point was 57 °C.
The compound `CCOC(=O)C1CC(=O)c2cc(C(C)(C)C)cc(C(C)(C)C)c2O1` (centres undefined) returned a melting point of 61 to 63 °C.
The value for `CCOC(=S)c1[nH]c(C)nc1C(C)(C)O` was 128 to 129 °C; that for `CC1=CCC(O)(C(C)(C)Sc2ccccc2)CC1` (centres undefined) was 73 to 74 °C; that for `C[C@H]1CCCC(C)(C)[C@@H]1C(=O)c1ccoc1` was 114 to 116 °C.
The compound `CC1(C)OC(=O)Nc2ccc(-c3ccc(Cl)cc3)cc21` yielded a melting point of 255 to 257 °C.
The value for `N#CCCC(=O)c1ccncc1` was 53.5 to 55 °C; that for `CCCS(=O)(=O)c1c(C)nn(-c2c(Cl)cc(C(F)(F)F)cc2Cl)c1N` was 146 to 147 °C; that for `CN(c1cccc2cc(-c3ncc(C(=O)O)s3)[nH]c12)S(=O)(=O)c1cccs1` was 258 to 260 °C.
`CCCCCCCCCCCCCCCCCCOc1cc(N(CC(=O)O)CC(=O)O)cc([N+](=O)[O-])c1` registered a melting point of 131 to 134 °C.
On to `O=C(NCCOc1cccnn1)C1Cc2ccccc2N1S(=O)(=O)c1ccc(-c2cccc(C(F)(F)F)c2)cc1` (centres undefined), for which the melting point was in the range of 65 to 71 °C.
The compound `O=C1c2cccc(Br)c2CN1Cc1cccc(C(F)(F)F)c1` yielded a melting point of 119 to 120 °C.
In turn, `COCCOc1cc2ncc(C#N)c(NC3CCCC3)c2cc1OC` came in with a melting point of 87 to 90 °C.
The value for `CC(C)(C)[C@H]1CC[C@H](CC2=C(O)C(=O)c3ccccc3C2=O)CC1` was 180 to 182 °C.
The value for `COC(=O)C(O)Cc1ccc(O)cc1` (centres undefined) was 42 to 43 °C; that for `O=C(NCc1ccc(C(F)(F)F)cc1)Nc1cccc2[nH]ccc12` was 178 °C; that for `CC1(C)Oc2cc(N)c([N+](=O)[O-])cc2O1` was 128 to 129 °C.
The value for `Cc1c(-c2ccc(-c3ccccc3F)cc2)nc2ccc(F)cc2c1C(=O)O` was 315 to 317 °C; that for `O=C(N[C@H]1CC[C@H](CCN2CCC(c3cccc4c3CCO4)CC2)CC1)c1ccc2ncccc2c1` was 238 °C.
`COc1ccc(-c2c(Cl)c(CN3C(=O)CCC3=O)nc3sc4c(c23)CC[C@H](C(N)=O)C4)cc1`: the melting point lay in the range of 282 to 283 °C.
Consider `COc1ccc2c(c1)C=C(/C=C/C=C/C=C/C(=O)O)C(C)(C)O2`, for which the melting point was 154 to 156 °C.
As to `CC(C)(O)Cn1c(CO)nc2c(N)nc3cc(OCc4ccccc4)ccc3c21`, the melting point is 284 to 286 °C.
The compound `O=C(O)CN1C(=O)C(=Cc2ccncc2)SC1=S` gave a melting point of 263 to 266 °C.
The value for `CCCC(=NOc1ccc(Cl)cc1)c1cc(Cl)ccc1NS(=O)(=O)C(F)(F)F` was 62.5 to 64.5 °C; that for `CCc1[nH]n(C2CCCC2)c2nc(Cc3ccc(OCC(=O)O)cc3)nc(=O)c1-2` was 218 to 220 °C.
The compound `COc1cc(-c2cc(C(F)(F)F)nn2-c2ccc(S(N)(=O)=O)c(F)c2)ccc1-c1cscn1` showed a melting point of 97 to 99 °C.
The value for `Nc1c2c(nc3ccc(Cl)cc13)CCCC2=O` was > 260 °C; that for `CCCS(=O)(=O)c1cc(C(C)C)c(C#N)cc1C(C)C` was 113 to 115 °C.
Turning to `C=C(C)OC(=O)N1c2nc(C)ccc2NC(=S)C1C` (racemic), the melting point lay within 120 to 121 °C.
The value for `CN(C)Cc1ccc2c(c1)nnn2Cc1c(Cl)c(Cl)cc2[nH]c(=O)c(=O)[nH]c12` was 282 °C; that for `COc1cc(C2CN(c3cc4c(cc3F)ncc3c4c(=O)c(C(=O)O)cn3C)CCN2)ccc1OCc1ccccc1` (centres undefined) was 280 °C; that for `CCCOc1nc2ccc(Br)cc2c(=O)n1CCC` was 57 to 59 °C.
The value for `Brc1cccc2ncn3ccnc3c12` was 215 to 216 °C; that for `O=C(Nc1ccccc1)N1C(=O)C2(CCCCC2)N(O)C12CCCCC2` was 125 to 128 °C; that for `CC(C#Cc1cccc(Oc2ccccc2)c1)N(O)C(N)=O` (centres undefined) was 110 to 115 °C.
Turning to `Cc1nc2c(N[C@@H]3c4ccccc4C[C@H]3O)cc(C(=O)O)cn2c1C` (relative stereo), the melting point fell in the range of 246 to 249 °C.
The value for `O=C(Cc1cccnn1)c1ccc(F)cc1F` was 116 to 118 °C.
Compound `CC(C)(C)OC(=O)N[C@@H](COS(C)(=O)=O)c1ccccc1` returned a melting point of 108 to 109 °C.
In the case of `CC1(c2ccc(Br)cc2)Cc2cc(O)c(Cl)c(Cl)c2C1=O` (centres undefined), the melting point was in the range of 221 to 223 °C.
Compound `COc1ccc(CC(=O)c2c(O)cc(OC)cc2OC)c(OC)c1` gave a melting point of 116 to 119 °C.
In the case of `CCc1nc2c(N)nc3cc(OCCNC(=O)NC(C)C)ccc3c2n1CC1CCOCC1`, the melting point lay in the range of 223 to 225 °C.
The value for `COc1ccc2[nH]cc(C3CCN(CCCCN4C(=O)c5ccccc5C4=O)CC3)c2c1` was 155 °C; that for `Cn1c(=O)c(-c2ccccc2)nc2cc3c(cc21)OC(F)(F)O3` was 165 °C.
In the case of `Cc1c(NC(=O)c2ccc(-c3ccc(F)cc3)cc2)ccc2cc(CN3CCCC3Cc3ccccc3)cnc12` (centres undefined), the melting point fell in the range of 172 to 174 °C.
The compound `O=C1c2ccccc2-c2c1c1ccccc1c(=O)n2CCCCCNS(=O)(=O)c1ccc(Br)cc1` displayed a melting point of 169 to 171 °C.
